Measurements as given in patent publication US9249131B2, “Modulators of ATP-binding cassette transporters” (Vertex Pharmaceuticals Incorporated, priority 2003, dated 2016).

Molecular target: T1, ΔF508-CFTR (Homo sapiens, UniProt P13569, DEL508-508)
T1 construct: expressed in transfected cells; host or cells: NIH3T3 mouse fibroblasts stably expressing ΔF508-CFTR for the optical, whole-cell and single-channel assays; Fisher rat epithelial (FRT) cells for Ussing chamber follow-up
Test: Assays for ΔF508-CFTR correction and potentiator properties (membrane potential optical and electrophysiological methods)
Assay type: cell-based
Details: CFTR modulation; for % Activity: % Efficacy; for EC50: tested using the above methods
Text: Assays for Detecting and Measuring ΔF508-CFTR Correction and Potentiator Properties of Compounds
A) Membrane Potential Optical Methods for Assaying ΔF508-CFTR Modulation Properties of Compounds
The optical membrane potential assay utilized voltage-sensitive FRET sensors described by Gonzalez and Tsien (See, Gonzales, J. E. and R. Y. Tsien (1995) “Voltage sensing by fluorescence resonance energy transfer in single cells” Biophys J 69 (4): 1272-80, and Gonzalez, J. E. and R. Y. Tsien (1997) “Improved indicators of cell membrane potential that use fluorescence resonance energy transfer” Chem Biol 4 (4): 269-77) in combination with instrumentation for measuring fluorescence changes such as the Voltage/Ion Probe Reader (VIPR) (See, Gonzalez, J. E., K. Oades, et al. (1999) “Cell-based assays and instrumentation for screening ion-channel targets” Drug Discov Today 4 (9): 431-439).
These voltage sensitive assays are based on the change in fluorescence resonant energy transfer (FRET) between the membrane-soluble, voltage-sensitive dye, DiSBAC2 (3), and a fluorescent phospholipid, CC2-DMPE, which is attached to the outer leaflet of the plasma membrane and acts as a FRET donor. Changes in membrane potential (Vm) cause the negatively charged DiSBAC2(3) to redistribute across the plasma membrane and the amount of energy transfer from CC2-DMPE changes accordingly. The changes in fluorescence emission were monitored using VIPR™ II, which is an integrated liquid handler and fluorescent detector designed to conduct cell-based screens in 96- or 384-well microtiter plates.
To identify small molecules that correct the trafficking defect associated with ΔF508-CFTR; a single-addition HTS assay format was developed. The cells were incubated in serum-free medium for 16 hrs at 37° C. in the presence or absence (negative control) of test compound. As a positive control, cells plated in 384-well plates were incubated for 16 hrs at 27° C. to “temperature-correct” ΔF508-CFTR. The cells were subsequently rinsed 3× with Krebs Ringers solution and loaded with the voltage-sensitive dyes. To activate ΔF508-CFTR, […] and the CFTR potentiator, genistein ([…]), were added along with Cl^−-free medium to each well. The addition of Cl^−-free medium promoted Cl^− efflux in response to ΔF508-CFTR activation and the resulting membrane depolarization was optically monitored using the FRET-based voltage-sensor dyes.
To identify potentiators of ΔF508-CFTR, a double-addition HTS assay format was developed. During the first addition, a Cl^−-free medium with or without test compound was added to each well. After 22 sec, a second addition of Cl^−-free medium containing 2-10 µM forskolin was added to activate ΔF508-CFTR. The extracellular Cl^− concentration following both additions was 28 mM, which promoted Cl^− efflux in response to ΔF508-CFTR activation and the resulting membrane depolarization was optically monitored using the FRET-based voltage-sensor dyes.
• Bath Solution #1: (in mM) NaCl 160, KCl 4.5, CaCl2 2, MgCl2 1, HEPES 10, pH 7.4 with NaOH. • Chloride-free bath solution: Chloride salts in Bath Solution #1 are substituted with gluconate salts. • CC2-DMPE: Prepared as a 10 mM stock solution in DMSO and stored at −20° C. • DiSBAC2(3): Prepared as a 10 mM stock in DMSO and stored at −20° C. Cell Culture
NIH3T3 mouse fibroblasts stably expressing ΔF508-CFTR are used for optical measurements of membrane potential. The cells are maintained at 37° C. in 5% CO2 and 90% humidity in Dulbecco's modified Eagle's medium supplemented with 2 mM glutamine, 10% fetal bovine serum, 1×NEAA, β-ME, 1×pen/strep, and 25 mM HEPES in 175 cm^2 culture flasks. For all optical assays, the cells were seeded at 30,000/well in 384-well matrigel-coated plates and cultured for 2 hrs at 37° C. before culturing at 27° C. for 24 hrs. for the potentiator assay. For the correction assays, the cells are cultured at 27° C. or 37° C. with and without compounds for 16-24 hours.

T1 sequence (P13569 with tags, fused parts or gaps DEL508-508): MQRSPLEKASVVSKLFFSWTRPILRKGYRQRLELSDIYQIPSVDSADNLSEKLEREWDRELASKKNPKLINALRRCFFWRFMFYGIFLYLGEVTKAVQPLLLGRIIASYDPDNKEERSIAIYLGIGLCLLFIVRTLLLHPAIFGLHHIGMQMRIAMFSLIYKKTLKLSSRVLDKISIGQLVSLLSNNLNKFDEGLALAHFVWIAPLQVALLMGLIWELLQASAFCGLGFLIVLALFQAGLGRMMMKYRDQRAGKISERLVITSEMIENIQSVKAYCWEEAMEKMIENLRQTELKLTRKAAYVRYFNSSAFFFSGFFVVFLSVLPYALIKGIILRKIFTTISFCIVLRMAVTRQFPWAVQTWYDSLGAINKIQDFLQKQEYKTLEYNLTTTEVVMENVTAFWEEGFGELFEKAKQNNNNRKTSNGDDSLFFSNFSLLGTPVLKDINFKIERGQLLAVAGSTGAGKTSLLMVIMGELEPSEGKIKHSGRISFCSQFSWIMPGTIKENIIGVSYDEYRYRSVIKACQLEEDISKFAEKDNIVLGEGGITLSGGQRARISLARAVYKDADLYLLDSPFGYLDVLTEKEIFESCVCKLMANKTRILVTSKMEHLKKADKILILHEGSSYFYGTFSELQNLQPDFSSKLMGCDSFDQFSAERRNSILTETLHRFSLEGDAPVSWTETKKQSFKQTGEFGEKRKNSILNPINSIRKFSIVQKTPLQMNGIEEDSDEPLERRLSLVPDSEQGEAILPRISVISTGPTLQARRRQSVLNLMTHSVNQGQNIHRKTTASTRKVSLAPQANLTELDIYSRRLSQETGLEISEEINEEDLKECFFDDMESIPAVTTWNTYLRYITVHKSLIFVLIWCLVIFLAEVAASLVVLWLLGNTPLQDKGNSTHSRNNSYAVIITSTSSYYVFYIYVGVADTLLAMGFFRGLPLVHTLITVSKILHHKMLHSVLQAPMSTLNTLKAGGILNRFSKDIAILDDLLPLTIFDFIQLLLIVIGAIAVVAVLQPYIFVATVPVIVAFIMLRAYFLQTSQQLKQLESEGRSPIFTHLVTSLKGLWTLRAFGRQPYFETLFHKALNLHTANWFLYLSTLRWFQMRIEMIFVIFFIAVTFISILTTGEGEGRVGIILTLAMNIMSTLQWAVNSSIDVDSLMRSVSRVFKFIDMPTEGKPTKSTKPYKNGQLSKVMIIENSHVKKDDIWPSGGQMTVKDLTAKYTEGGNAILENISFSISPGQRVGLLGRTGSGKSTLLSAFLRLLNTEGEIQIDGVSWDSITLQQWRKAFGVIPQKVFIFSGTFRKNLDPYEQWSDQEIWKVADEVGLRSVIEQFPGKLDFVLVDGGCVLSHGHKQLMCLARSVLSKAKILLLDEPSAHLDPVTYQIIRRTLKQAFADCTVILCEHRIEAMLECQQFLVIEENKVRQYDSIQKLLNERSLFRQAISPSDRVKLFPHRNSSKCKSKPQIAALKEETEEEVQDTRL

Row | Compound | % Activity | EC50 [µM]
1 | O=C(Cc1ccccc1)Nc1ncc(Cc2ccc(Cl)cc2)o1 [compound 149] | ++ (“++” means between 25% to 100%) | 10 to 25
2 | CCC(C(=O)Nc1ncc(Cc2cccc(Cl)c2)o1)c1ccccc1 (stereo not drawn) [compound 154] | ++ (“++” means between 25% to 100%) | < 10
3 | CCC(C(=O)Nc1ncc(Cc2ccccc2Cl)s1)N1CCCCC1 (stereo not drawn) [compound 225] | ++ (“++” means between 25% to 100%) | < 10
4 | COc1ccccc1Cc1cnc(NC(=O)C2c3ccccc3-c3ccccc32)s1 [compound 133] | ++ (“++” means between 25% to 100%) | < 10
5 | COc1cccc(C(=O)Nc2nc(-c3ccccc3OC)cs2)c1 [compound 7] | +++ (“+++” means >100%) | 10 to 25
6 | O=C(Nc1ncc(Cc2ccccc2Cl)o1)c1ccccc1 [compound 195] | ++ (“++” means between 25% to 100%) | < 10
7 | CCC(C(=O)Nc1ncc(Cc2ccccc2OC)s1)c1ccc(OC)cc1 (stereo not drawn) [compound 273] | ++ (“++” means between 25% to 100%) | < 10
8 | CCC(C(=O)Nc1ncc(C(=O)c2ccccc2Cl)s1)c1ccccc1 (stereo not drawn) [compound 262] | ++ (“++” means between 25% to 100%) | 25 to 60
9 | COc1ccccc1-c1csc(NC(=O)c2ccc(C)cc2)n1 [compound 4] | ++ (“++” means between 25% to 100%) | < 10
10 | CC(C)C(C(=O)Nc1ncc(Cc2ccc(Cl)cc2)s1)c1ccccc1 (stereo not drawn) [compound 123] | +++ (“+++” means >100%) | < 10
11 | CCC(C(=O)Nc1ncc(Cc2cccnc2OC)s1)c1ccccc1 (stereo not drawn) [compound 283] | ++ (“++” means between 25% to 100%) | < 10
12 | O=C(Nc1nc(-c2ccccc2)c(-c2ccccc2)s1)c1c(F)cccc1F [compound 62] | +++ (“+++” means >100%) | < 10
13 | CC(C)C(=O)Nc1nc(-c2ccccc2)cs1 [compound 85] | ++ (“++” means between 25% to 100%) | 10 to 25
14 | CCC(C)C(C(=O)Nc1ncc(Cc2cccc(Cl)c2)o1)c1ccccc1 (stereo not drawn) [compound 155] | ++ (“++” means between 25% to 100%) | < 10
15 | Cc1cccc2sc(NC(=O)c3cccc(Br)c3)nc12 [compound 42] | ++ (“++” means between 25% to 100%) | < 10
16 | CC(C(=O)Nc1nc(-c2ccccc2)c(-c2ccccc2)s1)c1ccccc1 (stereo not drawn) [compound 172] | +++ (“+++” means >100%) | < 10
17 | COc1ccccc1C(=O)Nc1nc(-c2ccccc2)cs1 [compound 76] | +++ (“+++” means >100%) | 10 to 25
18 | CCC(C)C(C(=O)Nc1ncc(Cc2ccccc2OC)o1)c1ccccc1 (stereo not drawn) [compound 184] | ++ (“++” means between 25% to 100%) | 10 to 25
19 | COc1ccc(C(=O)Nc2nc(-c3ccccc3)cs2)cc1 [compound 78] | ++ (“++” means between 25% to 100%) | 10 to 25
20 | CCOC(=O)c1csc(NC(=O)C(c2ccccc2)c2ccccc2)n1 [compound 280] | ++ (“++” means between 25% to 100%) | < 10
21 | O=C(Nc1ncc(Cc2ccccc2Cl)o1)C(c1ccc(Cl)cc1)c1ccc(Cl)cc1 [compound 187] | ++ (“++” means between 25% to 100%) | 10 to 25

Next, values leading:

Row | % Activity | EC50 [µM] | Compound
22 | ++ (“++” means between 25% to 100%) | 10 to 25 | CCC(C(=O)Nc1ncc(Cc2ccccc2)s1)c1ccccc1 (stereo not drawn) [compound 96]
23 | ++ (“++” means between 25% to 100%) | 10 to 25 | O=C(Nc1nc(-c2ccccc2Cl)cs1)c1cccc(Cl)c1 [compound 229]
24 | ++ (“++” means between 25% to 100%) | < 10 | COc1ccccc1Cc1cnc(NC(=O)C(c2ccccc2)C(C)C)s1 (stereo not drawn) [compound 138]
25 | +++ (“+++” means >100%) | 10 to 25 | CCC(C(=O)Nc1nc2ccc(C)cc2s1)c1ccccc1 (stereo not drawn) [compound 24]
26 | ++ (“++” means between 25% to 100%) | 25 to 60 | COc1ccccc1Cc1cnc(NC(=O)C(Cc2ccccc2)N(C)C)s1 (stereo not drawn) [compound 275]
27 | ++ (“++” means between 25% to 100%) | 25 to 60 | CCC(C(=O)Nc1ncc(Cc2ccccc2Cl)s1)N1CCOCC1 (stereo not drawn) [compound 223]
28 | ++ (“++” means between 25% to 100%) | < 10 | CCC(C)C(C(=O)Nc1ncc(Cc2ccc(Cl)cc2)o1)c1ccccc1 (stereo not drawn) [compound 147]
29 | ++ (“++” means between 25% to 100%) | < 10 | O=C(Nc1ncc(Cc2cccc(Cl)c2)o1)C(c1ccccc1)C1CCCCC1 (stereo not drawn) [compound 151]
30 | +++ (“+++” means >100%) | < 10 | CC(C(=O)Nc1nc(-c2ccccc2)cs1)N1CCN(S(=O)(=O)c2ccc(Br)cc2)CC1 (stereo not drawn) [compound 199]
31 | +++ (“+++” means >100%) | < 10 | O=C(Nc1nc(-c2ccccc2)cs1)c1cccc(Cl)c1 [compound 53]
32 | ++ (“++” means between 25% to 100%) | < 10 | O=C(Nc1nc(-c2ccccc2)c(-c2ccccc2)s1)C(c1ccccc1)C1CCCC1 (stereo not drawn) [compound 175]
33 | ++ (“++” means between 25% to 100%) | < 10 | O=C(Nc1ncc(Cc2ccc(Cl)cc2)s1)C(c1ccc(Cl)cc1)c1ccc(Cl)cc1 [compound 118]
34 | ++ (“++” means between 25% to 100%) | 10 to 25 | O=C(Nc1nc(-c2ccccc2)c(-c2ccccc2)s1)C(c1ccccc1)C1CCCCC1 (stereo not drawn) [compound 177]
35 | ++ (“++” means between 25% to 100%) | < 10 | CCC(C)C(C(=O)Nc1ncc(Cc2ccccc2OC)s1)c1ccccc1 (stereo not drawn) [compound 137]
36 | +++ (“+++” means >100%) | < 10 | O=C(Nc1ncc(Cc2cccc(Cl)c2)s1)C1c2ccccc2Oc2ccccc21 [compound 131]
37 | ++ (“++” means between 25% to 100%) | 25 to 60 | CCC(OC)C(=O)Nc1ncc(Cc2ccccc2Cl)s1 (stereo not drawn) [compound 219]
38 | ++ (“++” means between 25% to 100%) | < 10 | COc1ccc(-c2ccc(C(=O)Nc3nccs3)cc2)cc1 [compound 13]
39 | ++ (“++” means between 25% to 100%) | < 10 | O=C(Cc1ccccc1)Nc1ncc(Cc2cccc(Cl)c2)s1 [compound 31]
40 | ++ (“++” means between 25% to 100%) | 10 to 25 | COc1ccc(C(=O)Nc2nc(-c3ccccc3OC)cs2)cc1 [compound 6]
41 | ++ (“++” means between 25% to 100%) | 10 to 25 | O=C(Nc1ncc(-c2ccccc2)s1)c1ccccc1 [compound 18]
42 | ++ (“++” means between 25% to 100%) | 10 to 25 | O=C(Nc1ncc(Cc2cccc(Cl)c2Cl)s1)C1CC1 [compound 22]
43 | ++ (“++” means between 25% to 100%) | < 10 | CC(C)CC(=O)Nc1ncc(Cc2ccccc2Cl)s1 [compound 206]
44 | ++ (“++” means between 25% to 100%) | 10 to 25 | O=C(Nc1ncc(Cc2ccc(Cl)cc2)o1)c1ccccc1 [compound 150]
45 | ++ (“++” means between 25% to 100%) | 10 to 25 | CCOc1ccc2nc(NC(=O)C3CCCCC3)sc2c1 [compound 1]
